Source: patent US9034921B2, “Diphenylmethane derivatives as SGLT2 inhibitors” (GREEN CROSS CORPORATION, priority 2011, dated 2015)
Structures can show the parent of a compound that is named as a salt.

These molecules were tested against human SGLT2 (Homo sapiens (Human), UniProt P31639) (assay: Inhibitory effects on human SGLT2 activities (14C-AMG uptake, sodium-dependent glucose transport assay)). Details: CHO cells stably expressing hSGLT2, 37° C., 2 h, single determinations.
Assay type: cell-based
How it was run: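 CHO cells stably expressing hSGLT2 were preincubated 10 min at 37 °C in choline (Na+-free) buffer, then exposed 2 h at 37 °C to compound in Na+ uptake buffer with 8 μM 14C-AMG and 1 mM unlabeled AMG. Radioactivity was scintillation counted; IC50 came from nonlinear regression.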

human SGLT2, sequence (P31639 whole entry): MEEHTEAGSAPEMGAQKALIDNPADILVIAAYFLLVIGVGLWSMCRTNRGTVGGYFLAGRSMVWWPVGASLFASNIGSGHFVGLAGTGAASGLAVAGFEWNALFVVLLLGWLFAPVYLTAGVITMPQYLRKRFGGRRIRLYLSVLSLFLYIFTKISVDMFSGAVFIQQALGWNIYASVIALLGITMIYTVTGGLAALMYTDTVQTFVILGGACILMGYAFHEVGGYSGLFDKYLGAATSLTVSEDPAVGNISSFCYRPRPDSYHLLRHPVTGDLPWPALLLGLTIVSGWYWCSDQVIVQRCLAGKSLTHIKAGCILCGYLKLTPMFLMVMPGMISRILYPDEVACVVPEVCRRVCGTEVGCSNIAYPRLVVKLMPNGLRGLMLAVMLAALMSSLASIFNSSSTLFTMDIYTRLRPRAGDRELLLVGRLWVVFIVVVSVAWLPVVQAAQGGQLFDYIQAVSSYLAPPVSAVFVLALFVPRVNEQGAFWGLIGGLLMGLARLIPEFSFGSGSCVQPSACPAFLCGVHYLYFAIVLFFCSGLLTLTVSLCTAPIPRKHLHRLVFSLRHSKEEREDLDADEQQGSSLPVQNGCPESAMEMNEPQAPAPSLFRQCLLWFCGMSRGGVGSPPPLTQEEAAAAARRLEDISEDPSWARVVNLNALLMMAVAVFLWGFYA

Structure (SMILES)	IC50
OC[C@H]1O[C@@H](c2cc(Cc3ccc(CN4CC4)cc3)c(Cl)c3c2CCO3)[C@H](O)[C@@H](O)[C@@H]1O [Example E185, (2S,3R,4R,5S,6R)-2-(6-(4-(Aziridin-1-ylmethyl)benzyl)-7-chloro-2,3-dihydrobenzofuran-4-yl)-6-(hydroxymethyl)tetrahydro-2H-pyran-3,4,5-triol trifluoro acetic acid salt]	164 nM
OC[C@H]1O[C@@H](c2cc(Cc3ccc4c(c3)OCCO4)c(Cl)c3c2OCC3)[C@H](O)[C@@H](O)[C@@H]1O [Example E191, (2S,3R,4R,5S,6R)-2-(4-Chloro-5-((2,3-dihydrobenzo[b][1,4]dioxin-6-yl)methyl)-2,3-dihydrobenzofuran-7-yl)-6-(hydroxymethyl)tetrahydro-2H-pyran-3,4,5-triol]	1.57 nM
OCCCOc1ccc(Cc2cc([C@@H]3O[C@H](CO)[C@@H](O)[C@H](O)[C@H]3O)c3c(c2Cl)OCC3)cc1 [Example E193, (2S,3R,4R,5S,6R)-2-(7-Chloro-6-(4-(3-hydroxypropoxy)benzyl)-2,3-dihydrobenzofuran-4-yl)-6-(hydroxymethyl)tetrahydro-2H-pyran-3,4,5-triol]	1.87 nM
CCCOc1ccc(Cc2cc([C@@H]3O[C@H](CO)[C@@H](O)[C@H](O)[C@H]3O)c3c(c2Cl)OCC3)cc1 [Example E194, (2S,3R,4R,5S,6R)-2-(7-Chloro-6-(4-propoxybenzyl)-2,3-dihydrobenzofuran-4-yl)-6-(hydroxymethyl)tetrahydro-2H-pyran-3,4,5-triol]	1.22 nM
COc1ccc(Cc2cc([C@@H]3O[C@H](CO)[C@@H](O)[C@H](O)[C@H]3O)c3c(c2Cl)C(=O)CO3)cc1 [Example E195, 4-Chloro-5-(4-methoxybenzyl)-7-((2S,3R,4R,5S,6R)-3,4,5-trihydroxy-6-(hydroxymethyl)tetrahydro-2H-pyran-2-yl)benzofuran-3(2H)-one]	35.1 nM
COc1ccc(Cc2cc([C@@H]3O[C@H](CO)[C@@H](O)[C@H](O)[C@H]3O)c3c(c2Cl)C(O)CO3)cc1 (stereo partly drawn) [Example E196, (2S,3R,4R,5S,6R)-2-(4-Chloro-3-hydroxy-5-(4-methoxybenzyl)-2,3-dihydrobenzofuran-7-yl)-6-(hydroxymethyl)tetrahydro-2H-pyran-3,4,5-triol]	3.56 nM
CN(C)c1ccc(Cc2cc([C@@H]3O[C@H](CO)[C@@H](O)[C@H](O)[C@H]3O)c3c(c2Cl)CCO3)cc1 [Example E197, (2S,3R,4R,5S,6R)-2-(4-Chloro-5-(4-(dimethylamino)benzyl)-2,3-dihydrobenzofuran-7-yl)-6-(hydroxymethyl)tetrahydro-2H-pyran-3,4,5-triol]	3.22 nM
OC[C@H]1O[C@@H](c2cc(Cc3ccc(OCCOC4CC4)cc3)c(Cl)c3c2CCO3)[C@H](O)[C@@H](O)[C@@H]1O [Example E198, (2S,3R,4R,5S,6R)-2-(7-Chloro-6-(4-(2-cyclopropoxyethoxy)benzyl)-2,3-dihydrobenzofuran-4-yl)-6-(hydroxymethyl)tetrahydro-2H-pyran-3,4,5-triol]	2.02 nM
OC[C@H]1O[C@@H](c2cc(Cc3ccc(OC(F)(F)F)cc3)c(Cl)c3c2CCO3)[C@H](O)[C@@H](O)[C@@H]1O [Example E200, (2S,3R,4R,5S,6R)-2-(7-Chloro-6-(4-(trifluoromethoxy)benzyl)-2,3-dihydrobenzofuran-4-yl)-6-(hydroxymethyl)tetrahydro-2H-pyran-3,4,5-triol]	1.08 nM
COc1ccc(Cc2cc([C@@H]3O[C@H](CO)[C@@H](O)[C@H](O)[C@H]3O)c3oc(C)c(OC)c3c2Cl)cc1 [Example E201, (2S,3R,4R,5S,6R)-2-(4-Chloro-3-methoxy-5-(4-methoxybenzyl)-2-methylbenzofuran-7-yl)-6-(hydroxymethyl)tetrahydro-2H-pyran-3,4,5-triol]	49.4 nM
COc1ccc(Cc2cc([C@@H]3O[C@H](CO)[C@@H](O)[C@H](O)[C@H]3O)c3occ(OC)c3c2Cl)cc1 [Example E202, (2S,3R,4R,5S,6R)-2-(4-Chloro-3-methoxy-5-(4-methoxybenzyl)benzofuran-7-yl)-6-(hydroxymethyl)tetrahydro-2H-pyran-3,4,5-triol]	42.3 nM

The remaining lines, values ahead:

IC50	Structure (SMILES)
0.574 nM	C=C(C)c1ccc(Cc2cc([C@@H]3O[C@H](CO)[C@@H](O)[C@H](O)[C@H]3O)c3c(c2Cl)OCC3)cc1 [Example E180, (2S,3R,4R,5S,6R)-2-(7-Chloro-6-(4-(prop-1-en-2-yl)benzyl)-2,3-dihydrobenzofuran-4-yl)-6-(hydroxymethyl)tetrahydro-2H-pyran-3,4,5-triol]
0.794 nM	CC(C)c1ccc(Cc2cc([C@@H]3O[C@H](CO)[C@@H](O)[C@H](O)[C@H]3O)c3c(c2Cl)OCC3)cc1 [Example E181, (2S,3R,4R,5S,6R)-2-(7-Chloro-6-(4-isopropylbenzyl)-2,3-dihydrobenzofuran-4-yl)-6-(hydroxymethyl)tetrahydro-2H-pyran-3,4,5-triol]
1.03 nM	C#Cc1ccc(Cc2cc([C@@H]3O[C@H](CO)[C@@H](O)[C@H](O)[C@H]3O)c3c(c2Cl)OCC3)cc1 [Example E182, (2S,3R,4R,5S,6R)-2-(7-Chloro-6-(4-ethynylbenzyl)-2,3-dihydrobenzofuran-4-yl)-6-(hydroxymethyl)tetrahydro-2H-pyran-3,4,5-triol]
122 nM	CNCc1ccc(Cc2cc([C@@H]3O[C@H](CO)[C@@H](O)[C@H](O)[C@H]3O)c3c(c2Cl)OCC3)cc1 [Example E183, (2S,3R,4R,5S,6R)-2-(7-Chloro-6-(4-((methylamino)methyl)benzyl)-2,3-dihydrobenzofuran-4-yl)-6-(hydroxymethyl)tetrahydro-2H-pyran-3,4,5-triol trifluoro acetic acid salt]
162 nM	CN(C)Cc1ccc(Cc2cc([C@@H]3O[C@H](CO)[C@@H](O)[C@H](O)[C@H]3O)c3c(c2Cl)OCC3)cc1 [Example E184, (2S,3R,4R,5S,6R)-2-(7-Chloro-6-(4-((dimethylamino)methyl)benzyl)-2,3-dihydrobenzofuran-4-yl)-6-(hydroxymethyl)tetrahydro-2H-pyran-3,4,5-triol trifluoro acetic acid salt]
6.06 nM	N#Cc1ccc(Cc2cc([C@@H]3O[C@H](CO)[C@@H](O)[C@H](O)[C@H]3O)c3c(c2Cl)OCC3)cc1 [Example E186, 4-((7-Chloro-4-((2S,3R,4R,5S,6R)-3,4,5-trihydroxy-6-(hydroxymethyl)tetrahydro-2H-pyran-2-yl)-2,3-dihydrobenzofuran-6-yl)methyl)benzonitrile]
1.17 nM	CCCc1ccc(Cc2cc([C@@H]3O[C@H](CO)[C@@H](O)[C@H](O)[C@H]3O)c3c(c2Cl)OCC3)cc1 [Example E187, (2S,3R,4R,5S,6R)-2-(7-Chloro-6-(4-propylbenzyl)-2,3-dihydrobenzofuran-4-yl)-6-(hydroxymethyl)tetrahydro-2H-pyran-3,4,5-triol]
1.11 nM	CN(C)c1ccc(Cc2cc([C@@H]3O[C@H](CO)[C@@H](O)[C@H](O)[C@H]3O)c3c(c2Cl)OCC3)cc1 [Example E190, (2S,3R,4R,5S,6R)-2-(7-Chloro-6-(4-(dimethylamino)benzyl)-2,3-dihydrobenzofuran-4-yl)-6-(hydroxymethyl)tetrahydro-2H-pyran-3,4,5-triol]
1.63 nM	OC[C@H]1O[C@@H](c2cc(Cc3ccc(O)cc3)c(Cl)c3c2CCO3)[C@H](O)[C@@H](O)[C@@H]1O [Example E192, (2S,3R,4R,5S,6R)-2-(7-Chloro-6-(4-hydroxybenzyl)-2,3-dihydrobenzofuran-4-yl)-6-(hydroxymethyl)tetrahydro-2H-pyran-3,4,5-triol]
